Measurements as given in ChEMBL document CHEMBL1201862, “PubChem BioAssay data set” (2004).
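96-well plates; 48 h exposure; 5 concentrations. Endpoints by linear interpolation between flanking doses. Not reached: highest tested concentration assigned. GI50 marks 50% less growth.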 Calls of active or inactive are those of the source. No stated cut-off is given here; in the data, active = GI50 up to about 1.1 µM and inactive = higher.

Experiments:
Test in all cases: NCI-60 cell line screen, 48 h
NCI-H460 = tested on: NCI-H460
SK-MEL-28 = tested on: SK-MEL-28
IGROV-1 = tested on: IGROV-1
CAKI-1 = tested on: CAKI-1
Malme-3M = tested on: Malme-3M
DLD-1 = tested on: DLD-1
TK-10 = tested on: TK-10
A498 = tested on: A498
SK-MEL-2 = tested on: SK-MEL-2
COLO 205 = tested on: COLO 205
HOP-62 = tested on: HOP-62
UO-31 = tested on: UO-31
SNB-78 = tested on: SNB-78
KM-20L2 = tested on: KM-20L2
HT-29 = tested on: HT-29
SK-OV-3 = tested on: SK-OV-3
ACHN = tested on: ACHN
HL-60 = tested on: HL-60
RPMI-8226 = tested on: RPMI-8226
DMS-273 = tested on: DMS-273
LXFL 529 = tested on: LXFL 529
MOLT-4 = tested on: MOLT-4
A549 = tested on: A549
CCRF-CEM = tested on: CCRF-CEM
NCI-H522 = tested on: NCI-H522
NCI-H226 = tested on: NCI-H226
NCI-H23 = tested on: NCI-H23
SW-620 = tested on: SW-620
UACC-62 = tested on: UACC-62
OVCAR-5 = tested on: OVCAR-5
UACC-257 = tested on: UACC-257
DMS-114 = tested on: DMS-114
HOP-92 = tested on: HOP-92
HCT-15 = tested on: HCT-15
KM12 = tested on: KM12
786-0 = tested on: 786-0
HCT-116 = tested on: HCT-116
SF-295 = tested on: SF-295
SF-539 = tested on: SF-539
RXF 393 = tested on: RXF 393
EKVX = tested on: EKVX
SN12C = tested on: SN12C
SR = tested on: SR
OVCAR-8 = tested on: OVCAR-8
M19-MEL = tested on: M19-MEL
SNB-75 = tested on: SNB-75
SF-268 = tested on: SF-268
M14 = tested on: M14
RXF 631 = tested on: RXF 631
U-251 = tested on: U-251
OVCAR-3 = tested on: OVCAR-3
OVCAR-4 = tested on: OVCAR-4
SNB-19 = tested on: SNB-19

In the case of `Cc1cc(C)c(C(=O)c2no[n+]([O-])c2C(=O)c2c(C)cc(C)c(Br)c2C)c(C)c1Br`, the GI50 (NCI-H460) is reported as 14.2 µM (inactive), the GI50 (SK-MEL-28) is reported as 14.4 µM (inactive) and the GI50 (IGROV-1) is reported as 6.15 µM (inactive). For the same molecule, the GI50 (CAKI-1) was 11.4 µM (inactive), the GI50 (Malme-3M) was 14 µM (inactive) and the GI50 (DLD-1) was 14.2 µM (inactive). For the same molecule, the GI50 (TK-10) was 9.31 µM (inactive), the GI50 (A498) was 17.6 µM (inactive) and the GI50 (SK-MEL-2) was 14.1 µM (inactive). For the same molecule, the GI50 (COLO 205) was 16.8 µM (inactive), the GI50 (HOP-62) was 18.2 µM (inactive) and the GI50 (UO-31) was 7.67 µM (inactive). For the same molecule, the GI50 (SNB-78) was 18.6 µM (inactive), the GI50 (KM-20L2) was 16.2 µM (inactive) and the GI50 (HT-29) was 12.3 µM (inactive). The GI50 (SK-OV-3) was 20.7 µM (inactive), the GI50 (ACHN) was 12.6 µM (inactive) and the GI50 (HL-60) was 3.35 µM (inactive). The GI50 (RPMI-8226) was 10.2 µM (inactive), the GI50 (DMS-273) was 18.5 µM (inactive) and the GI50 (LXFL 529) was 11.2 µM (inactive). The GI50 (MOLT-4) was 4.65 µM (inactive), the GI50 (A549) was 13.8 µM (inactive) and the GI50 (CCRF-CEM) was 2.59 µM (inactive). For the same molecule, the GI50 (NCI-H522) was 10.9 µM (inactive), the GI50 (NCI-H226) was 16.1 µM (inactive) and the GI50 (NCI-H23) was 11.5 µM (inactive). For the same molecule, the GI50 (SW-620) was 12.9 µM (inactive), the GI50 (UACC-62) was 10.7 µM (inactive) and the GI50 (OVCAR-5) was 16 µM (inactive). The GI50 (UACC-257) was > 10 µM (inactive), the GI50 (DMS-114) was 10.8 µM (inactive) and the GI50 (HOP-92) was 6.19 µM (inactive). For the same molecule, the GI50 (HCT-15) was 13.5 µM, the GI50 (KM12) was 13.6 µM (inactive) and the GI50 (786-0) was 15.1 µM (inactive). For the same molecule, the GI50 (HCT-116) was 10.2 µM (inactive), the GI50 (SF-295) was 16.9 µM (inactive) and the GI50 (SF-539) was 15.5 µM (inactive). The GI50 (RXF 393) was 6.05 µM (inactive), the GI50 (EKVX) was 12 µM (inactive) and the GI50 (SN12C) was 14.2 µM (inactive). The GI50 (SR) was 4.27 µM (inactive), the GI50 (OVCAR-8) was 10.9 µM (inactive) and the GI50 (M19-MEL) was 12.6 µM (inactive). The GI50 (SNB-75) was 9.31 µM (inactive), the GI50 (SF-268) was 11.5 µM (inactive) and the GI50 (M14) was 11.8 µM (inactive). The GI50 (RXF 631) was 13.6 µM (inactive), the GI50 (U-251) was 12.5 µM (inactive) and the GI50 (OVCAR-3) was 13.6 µM (inactive). For the same molecule, the GI50 (OVCAR-4) was 10.2 µM (inactive) and the GI50 (SNB-19) was 15.7 µM (inactive).
